Values of other authors, collected in US11022607B2, “Compound-carrier systems for assays in nematodes” (Assistance Publique—Hôpitaux de Paris, priority 2013, dated 2021).

Tested on: C. elegans
Conditions: 25 ml of liposomes containing 50 mg of uranin; in 3 h

SMILES: O=C([O-])c1ccccc1-c1c2ccc(=O)cc-2oc2cc([O-])ccc12.[Na+].[Na+] [uranin]
- amount of fluorescent dye absorption, compared with worms administered dye by conventional methods: 100 fold
